Results published in patent publication US5990136A, “Isoxazoline derivatives useful as antimicrobials” (Pharmacia & Upjohn Company, priority 1997, dated 1999).
In brackets after ≈: the same amount, converted by molar mass. Blank lines part the entries; values can stand above or below the molecule they belong to.

Key:
[1] = test system: Staphylococcus aureus UC ® No. 9213; assay: In vitro antimicrobial activity (MIC, agar dilution, Mueller Hinton agar), S. aureus UC 9213; type: cell-based; conditions: UC9213, 35° C., 18 hours, read-out: Minimum inhibitory concentration (MIC), S. a. 9213
Procedure: (§1) Antimicrobial activity was tested in vitro using the procedure described in National Committee for Clinical Laboratory Standards. Methods for dilution antimicrobial susceptibility tests for bacteria that grow aerobically are disclosed in the third edition of Approved Standard, NCCLS Document M7-A3, Villanova, Pa., 1993. Minimum inhibitory concentration (MIC) values were determined by an agar dilution method (1) in which the test medium was Mueller Hinton agar (MHA; Difco Laboratories, Detroit, Mich.) supplemented with 1% Supplement C (Difco). Serial two-fold dilutions of each compound were prepared using 1.0 ml volumes of sterile distilled water. To each 1.0 ml aliquot was added 9.0 ml of molten agar medium. The drug-supplemented agar was mixed, poured into 15×100 mm petri dishes, and allowed to solidify and dry at room temperature prior to inoculation. The test cultures were grown aerobically overnight at 35° C. on MHA; streptococcal strains were grown on Trypticase Soy Blood Agar Base EH (Difco) supplemented with 5% defibrinated sheep blood (BBL, Becton Dickinson Company, Cockeysville, Md.). Colonies were harvested with a sterile swab, and cell suspensions were prepared in Trypticase Soy Broth (TSB; Becton Dickinson Company) to equal the turbidity of a 0.5 McFarland standard. A 1:19 dilution of the suspension was made in TSB; this diluted suspension constituted the inoculum for the assay. The plates containing the drug-supplemented agar were inoculated with a 0.001 ml drop of the cell suspensions using a Steers replicator (Melrose Machine Shop, Woodlyn, Pa.), yielding approximately 10^4 -10^5 cells per spot. The plates were incubated aerobically at 35° C. for 18 hours and the MIC was read as the lowest concentration of drug that inhibited visible growth of the organism. The growth of a single colony was considered to be negative.

[2] = test system: Enterococcus faecalis UC ® No. 9217; assay: In vitro antimicrobial activity (MIC, agar dilution, Mueller Hinton agar), E. faecalis UC 9217; type: cell-based; conditions: UC9217, 35° C., 18 hours, read-out: Minimum inhibitory concentration (MIC), E. f. 9217
Procedure: as §1

[3] = test system: Streptococcus Pneumoniae UC ® No. 9912; assay: In vitro antimicrobial activity (MIC, agar dilution, Mueller Hinton agar), S. pneumoniae UC 9912; type: cell-based; conditions: UC9912, 35° C., 18 hours, read-out: Minimum inhibitory concentration (MIC), S. p. 9912
Procedure: as §1

[4] = test system: S, aureus UC ® No. 9213; conditions: Antimicrob. Agents Chemother. 1996 and ICAAC 1995 posters; cited from earlier work

SMILES: CC(=O)NCC1CC(c2ccc(C3=CCN(C(=O)CO)CC3)cc2)=NO1 (stereo not shown) [Example 4, N-[[4,5-Dihydro-3-[4-[1,2,3,6-tetrahydro-1-(hydroxyacetyl)-4-pyridinyl]phenyl]-5-isoxazolyl]methyl]acetamide]
MIC [1]: 4 µg/mL (≈ 11.2 µM) | MIC [2]: 8 µg/mL (≈ 22.4 µM) | MIC [3]: 2 µg/mL (≈ 5.6 µM)

SMILES: CC(=O)NC[C@H]1CN(c2ccc(N3CCN(C(=O)CO)CC3)c(F)c2)C(=O)O1 [Example U-100592]
potency of U-100592 versus vancomycin in this animal model [4]: equipotent to vancomycin

SMILES: COC(=O)N1CC=C(c2ccc(C3=NOC(CNC(C)=O)C3)cc2)CC1 (stereo not shown) [Example 6, Methyl 4-[4-[5-[(acetylamino)methyl]-4,5-dihydro-3-isoxazolyl]phenyl]-3,6-dihydro-1(2H)-pyridinecarboxylate]
MIC [1]: 16 µg/mL (≈ 44.8 µM) | MIC [2]: 16 µg/mL (≈ 44.8 µM) | MIC [3]: 4 µg/mL (≈ 11.2 µM)

SMILES: CC(=O)NCC1CC(c2ccc(C3=CCN(C(C)=O)CC3)cc2)=NO1 (stereo not shown) [Example 7, N-[[4,5-Dihydro-3-[4-[1,2,3,6-tetrahydro-1-(acetyl)-4-pyridinyl]phenyl]-5-isoxazolyl]methyl]acetamide]
MIC [1]: 8 µg/mL (≈ 23.4 µM) | MIC [2]: 16 µg/mL (≈ 46.9 µM) | MIC [3]: 2 µg/mL (≈ 5.86 µM)

The remaining molecules from weak to strong by MIC [1], led by results:

MIC [1]: 4 µg/mL (≈ 11.4 µM) | MIC [2]: 4 µg/mL (≈ 11.4 µM) | MIC [3]: 1 µg/mL (≈ 2.84 µM)
SMILES: COc1ccc(-c2ccc(C3=NOC(CNC(C)=O)C3)cc2)ccc1=O (racemic) [Example 1, N-[[4,5-Dihydro-3-[4-(4-methoxy-5-oxo-1,3,6-cycloheptatrien-1-yl)phenyl]-5-isoxazolyl]methyl]acetamide]

MIC [1]: 2 µg/mL (≈ 5.6 µM) | MIC [2]: 4 µg/mL (≈ 11.2 µM) | MIC [3]: 0.5 µg/mL (≈ 1.4 µM)
SMILES: CC(=O)NC[C@H]1CC(c2ccc(C3=CCN(C(=O)CO)CC3)cc2)=NO1 [Example 5, (R)-N-[[4,5-Dihydro-3-[4-[1,2,3,6-tetrahydro-1-(hydroxyacetyl)-4-pyridinyl]phenyl]-5-isoxazolyl]methyl]acetamide]

MIC [1]: 1 µg/mL (≈ 3.39 µM) | MIC [2]: 2 µg/mL (≈ 6.77 µM) | MIC [3]: 0.25 µg/mL (≈ 0.846 µM)
SMILES: CC(=O)NC[C@H]1CC(c2ccc(-c3ccncc3)cc2)=NO1 [Example 8, (R)-N-[[4,5-Dihydro-3-[4-(4-pyridinyl)phenyl]-5-isoxazolyl]methyl]acetamide]
